Experimental data as given in patent US11197861B2, “Methods of screening BRaf inhibitors for treating cutaneous reactions” (Lutris Pharma Ltd., priority 2016, dated 2021).

Tested on: MAPK (ERK)
Assay: Activation of MAPK (ERK) in human normal keratinocytes (HEKa), Western blot of phospho-ERK / total ERK
Type: cell-based
Conditions: human primary keratinocytes (HEKa), 2 hours treatment
Experimental: Human normal Keratinocyte cells HEKa were seeded in 10 cm dishes (300,000 cells/dish) and incubated overnight at 37° C., 5% CO2. Next morning, the cells were starved for 2 hours and then treated with the various inhibitors (or control treatments) for 2 hours. Post incubation the cells were lyzed with RIPA Buffer and the protein extracts were analyzed by Western-Blot for detection of phospho ERK and total ERK2, by use of suitable antibodies. Untreated and 0.1% DMSO treated cells were used as negative control. Growth factors mix (HKGS) was used as positive control (Gibco CAT #: S0015).
Western Blot: 7.5 μg of total extract was loaded on 10% or 12% acrylamide gels. Following transfer, the membranes were blocked with TBST/5% skim milk and then incubated with Mouse anti phospho ERK (1:1000 in TBST 5% BSA, ON at 4° C.) and goat anti Mouse HRP (1:10,000 in TBST 5% BSA, 1 hour RT). The membranes were exposed using SuperSignal West Pico Chemiluminescent Substrate. The HRP was then inactivated by incubating the membranes for 1 hour with 0.5% Sodium azide. Following washes and ECL exposure in order to ensure absence of signal, the membranes were reblocked for 15 min with TBST/5% skim milk and then incubated with Rabbit anti total ERK2 (1:500 in TBST 5% BSA, ON at 4° C.), goat anti Rabbit HRP (1:5,000 in TBST 5% BSA, 1 hour RT) and finally exposed using the SuperSignal West Pico Chemiluminescent Substrate. The resulting images (films) were scanned and the signal were quantified using ImageJ software. BRaf inhibitors used in the experiments included, C-1, C-15, C-19 C-A or vemurafenib, at concentrations of 0.3 μM; 1 μM or 3 μM. ZM (ZM336372) a c-Raf inhibitor, which serves in the present experiments as a Braf activator and was used as a control.

[1] = increasing amounts 0.3 μM, 1 μM or 3 μM, FIGS. 1-3

SMILES	activation of ERK (increase in relative amount of Phosphorylated ERK) (1 μM, FIGS. 4A-C)	activation of ERK (increase in relative amount of Phosphorylated ERK) [1]
Cc1ccc2c(Nc3ccc(Cl)cc3)nccc2c1Nc1ncccc1-c1ncnc2[nH]cnc12 [C-1]	activation of ERK	activation of ERK
C#Cc1cccc(Nc2nccc3c(Nc4ncccc4-c4cc(NC)ncn4)c(C)ccc23)c1 [C-15]	activation of ERK	activation of ERK
CNc1ncc2cc(-c3c(C)ccc4c(Nc5cc(C(C)(C)C)nn5C)nccc34)ccc2n1 [C-19]	activation of ERK	activation of ERK
CNc1ncc2cc(-c3c(C)ccc4c(Nc5cccc(OC(F)(F)F)c5)nc(C)nc34)ccc2n1 [C-A]	activation of ERK	activation of ERK
Cc1ccc(NC(=O)c2cccc(N(C)C)c2)cc1NC(=O)c1ccc(O)cc1 [ZM 336372]	activation of ERK	activation of ERK
